The assay deals with Cathepsin D (Homo sapiens, UniProt P07339). The experiment in a line: Enzyme Inhibition Measurements. The following applies: 25 °C.

A word on the IC50: it is the concentration at which inhibition is half-maximal. The low end stands for greater potency in that assay, the high end for weaker potency in that assay.

Cathepsin D, sequence (P07339 65-162 limits assumed): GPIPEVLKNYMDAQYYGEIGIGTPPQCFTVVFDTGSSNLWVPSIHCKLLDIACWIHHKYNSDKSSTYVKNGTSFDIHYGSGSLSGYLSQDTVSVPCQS
Cathepsin D, sequence (P07339 169-412 limits assumed): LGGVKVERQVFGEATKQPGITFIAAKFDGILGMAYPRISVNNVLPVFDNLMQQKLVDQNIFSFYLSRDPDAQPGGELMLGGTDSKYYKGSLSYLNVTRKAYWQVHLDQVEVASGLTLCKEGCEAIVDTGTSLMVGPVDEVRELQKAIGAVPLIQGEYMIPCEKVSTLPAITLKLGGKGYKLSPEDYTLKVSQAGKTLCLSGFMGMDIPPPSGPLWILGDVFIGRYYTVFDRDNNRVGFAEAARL

In turn, `CCCCNC(=O)[C@@H](NC(=O)[C@@H]1OCC[C@H]1[C@H](O)[C@H](CC(C)C)NC(=O)[C@H](CCSC)NC(=O)[C@H](CC(C)C)NC(C)=O)C(C)C` [(2S)-N-[(1S)-1-{[(1S,2S)-1-[(2R,3S)-2-{[(1S)-1-(butylcarbamoyl)-2-methylpropyl]carbamoyl}oxolan-3-yl]-1-hydroxy-4-methylpentan-2-yl]carbamoyl}-3-(methylsulfanyl)propyl]-2-acetamido-4-methylpentanamide] came in with an IC50 of 0.28 µM.

The values above are taken from BindingDB's records for doi:10.1021/jm050142+ (Universite De Montreal At Succursale Centre-Ville, 2005).
